Measured values reported in patent US20250312352A1, “GLP-1R MODULATING COMPOUNDS” (Gilead Sciences, Inc., priority 2021, published 2025).

Molecular target: T1, GLP-1R (Homo sapiens, UniProt P43220)
T1 construct: host or cells: CHO cells
Experiment: GLP-1R activation cAMP assay (Assay 1 or Assay 2)
Assay type: cell-based
Settings: cAMP increase in CHO cells stably expressing GLP-1R; compounds run on one of the two cAMP assays
Summary of the method: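 CHO cells stably expressing human GLP-1R were incubated 1 h in HBSS/20 mM HEPES/0.1% BSA, then exposed to 10-point agonist dilutions for 30 min at 37 °C. cAMP increase was measured with an HTRF Gs dynamic kit; EC50 from sigmoidal fit of response versus log concentration.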

T1 sequence (P43220 24-463): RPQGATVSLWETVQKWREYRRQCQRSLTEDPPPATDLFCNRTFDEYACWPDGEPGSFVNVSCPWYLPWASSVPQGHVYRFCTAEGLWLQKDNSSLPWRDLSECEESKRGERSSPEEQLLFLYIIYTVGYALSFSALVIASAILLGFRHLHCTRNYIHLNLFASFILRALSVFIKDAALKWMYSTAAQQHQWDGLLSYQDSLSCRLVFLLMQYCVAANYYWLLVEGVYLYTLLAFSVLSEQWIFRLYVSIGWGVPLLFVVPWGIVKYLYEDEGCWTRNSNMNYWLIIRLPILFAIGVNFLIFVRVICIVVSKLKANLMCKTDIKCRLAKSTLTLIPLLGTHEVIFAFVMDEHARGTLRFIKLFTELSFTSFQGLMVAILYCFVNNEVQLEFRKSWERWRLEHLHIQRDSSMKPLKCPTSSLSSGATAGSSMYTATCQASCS

Row | Compound | EC50 [nM]
1 | O=C(O)c1cc(F)c2nc(Cc3cc(F)c(-c4cccc(OCc5ccc(C#Cc6cnc(N7CC8CCC(C7)N8C7COC7)nc6)cc5F)n4)cc3F)n(C[C@@H]3CCO3)c2c1 [Example 152, 2-(2,5-difluoro-4-(6-((2-fluoro-4-((2-(8-(oxetan-3-yl)-3,8-diazabicyclo[3.2.1]octan-3-yl)pyrimidin-5-yl)ethynyl)benzyl)oxy)pyridin-2-yl)benzyl)-4-fluoro-1-(((S)-oxetan-2-yl)methyl)-1H-benzo[d]imidazole-6-carboxylic acid] | 0.68
2 | O=C(O)c1ccc2nc(Cc3cc(F)c(-c4cccc(OCc5ccn(C(F)(F)F)n5)n4)cc3F)n(C[C@@H]3CCO3)c2c1 [Example 12, (S)-2-(2,5-difluoro-4-(6-((1-(trifluoromethyl)-1H-pyrazol-3-yl)methoxy)pyridin-2-yl)benzyl)-1-(oxetan-2-ylmethyl)-1H-benzo[d]imidazole-6-carboxylic acid] | 1.16
3 | CCOc1nnc(COc2cc(-c3cc(F)c(Cc4nc5ccc(C(=O)O)cc5n4[C@@H]4COCC4(C)C)cc3C)ccc2F)s1 [Example 260, (S)-1-(4,4-dimethyltetrahydrofuran-3-yl)-2-((3′-((5-ethoxy-1,3,4-thiadiazol-2-yl)methoxy)-4′,5-difluoro-2-methyl-[1,1′-biphenyl]-4-yl)methyl)-1H-benzo[d]imidazole-6-carboxylic acid] | 0.254
4 | Cn1cc(C#Cc2cnc(COc3cccc(-c4cc(F)c(Cc5nc6ccc(C(=O)O)cc6n5C[C@@H]5CCO5)cc4F)n3)nc2)cn1 [Example 154, (S)-2-(2,5-difluoro-4-(6-((5-((1-methyl-1H-pyrazol-4-yl)ethynyl)pyrimidin-2-yl)methoxy)pyridin-2-yl)benzyl)-1-(oxetan-2-ylmethyl)-1H-benzo[d]imidazole-6-carboxylic acid] | 0.52
5 | COc1nnc(COc2nc(-c3cc(F)c(Cc4nc5c(F)cc(C(=O)O)cc5n4[C@@H]4COCC4(C)C)cc3F)ccc2F)s1 [Example 346, (S)-2-(2,5-difluoro-4-(5-fluoro-6-((5-methoxy-1,3,4-thiadiazol-2-yl)methoxy)pyridin-2-yl)benzyl)-1-(4,4-dimethyltetrahydrofuran-3-yl)-4-fluoro-1H-benzo[d]imidazole-6-carboxylic acid] | 0.027
6 | O=C(O)c1ccc2nc(Cc3cc(F)c(-c4cccc(OCc5cnc(-c6cn(C7COC7)nn6)cc5F)n4)cc3F)n(C[C@@H]3CCO3)c2c1 [Example 236, 2-[[2,5-difluoro-4-[6-[[4-fluoro-6-[1-(oxetan-3-yl)triazol-4-yl]-3-pyridyl]methoxy]-2-pyridyl]phenyl]methyl]-3-[[(2S)-oxetan-2-yl]methyl]benzimidazole-5-carboxylic acid] | 0.22
7 | Cc1cc(C#Cc2cnn(C)c2)cnc1COc1cccc(-c2cc(F)c(Cc3nc4ccc(C(=O)O)cc4n3C[C@@H]3CCO3)cc2F)n1 [Example 289, (S)-2-(2,5-difluoro-4-(6-((3-methyl-5-((1-methyl-1H-pyrazol-4-yl)ethynyl)pyridin-2-yl)methoxy)pyridin-2-yl)benzyl)-1-(oxetan-2-ylmethyl)-1H-benzo[d]imidazole-6-carboxylic acid] | 0.262
8 | COCc1nnc(COc2cccc(-c3cc(F)c(Cc4nc5ccc(C(=O)O)cc5n4C[C@@H]4CCO4)cc3F)n2)s1 [Example 298, (S)-2-(2,5-difluoro-4-(6-((5-(methoxymethyl)-1,3,4-thiadiazol-2-yl)methoxy)pyridin-2-yl)benzyl)-1-(oxetan-2-ylmethyl)-1H-benzo[d]imidazole-6-carboxylic acid] | 0.466
9 | Cn1nccc1NC(=O)c1cc(Cl)c(COc2cccc(-c3cc(F)c(Cc4nc5ccc(C(=O)O)cc5n4C[C@@H]4CCO4)cc3F)n2)cn1 [Example 196, (S)-2-(4-(6-((4-chloro-6-((1-methyl-1H-pyrazol-5-yl)carbamoyl)pyridin-3-yl)methoxy)pyridin-2-yl)-2,5-difluorobenzyl)-1-(oxetan-2-ylmethyl)-1H-benzo[d]imidazole-6-carboxylic acid] | 0.29
10 | N#CCn1ccc(COc2cccc(-c3cc(F)c(Cc4nc5ccc(C(=O)O)cc5n4C[C@@H]4CCO4)cc3F)n2)n1 [Example 238, 2-[[4-[6-[[1-(cyanomethyl)pyrazol-3-yl]methoxy]-2-pyridyl]-2,5-difluoro-phenyl]methyl]-3-[[(2S)-oxetan-2-yl]methyl]benzimidazole-5-carboxylic acid] | 8.61
11 | O=C(O)c1ccc2nc(Cc3cc(F)c(-c4cccc(OCc5csc(Cl)n5)n4)cc3F)n(C[C@@H]3CCO3)c2c1 [Example 50, (S)-2-(4-(6-((2-chlorothiazol-4-yl)methoxy)pyridin-2-yl)-2,5-difluorobenzyl)-1-(oxetan-2-ylmethyl)-1H-benzo[d]imidazole-6-carboxylic acid] | 0.67
12 | CC1(C)COC[C@H]1n1c(Cc2cc(F)c(-c3cccc(OCc4nnc(C(F)F)s4)n3)cc2F)nc2ccc(C(=O)O)cc21 [Example 432, (S)-2-(4-(6-((5-(difluoromethyl)-1,3,4-thiadiazol-2-yl)methoxy)pyridin-2-yl)-2,5-difluorobenzyl)-1-(4,4-dimethyltetrahydrofuran-3-yl)-1H-benzo[d]imidazole-6-carboxylic acid] | 0.093
13 | O=C(O)c1cc(F)c2nc(Cc3cc(F)c(-c4cccc(OCc5ncc(C(F)(F)F)s5)n4)cc3F)n(CC3(CF)CC3)c2c1 [Example 412, 2-(2,5-difluoro-4-(6-((5-(trifluoromethyl)thiazol-2-yl)methoxy)pyridin-2-yl)benzyl)-4-fluoro-1-((1-(fluoromethyl)cyclopropyl)methyl)-1H-benzo[d]imidazole-6-carboxylic acid] | 0.099
14 | CCn1cc(Cl)c(COc2cccc(-c3cc(F)c(Cc4nc5ccc(C(=O)O)cc5n4C[C@@H]4CCO4)cc3F)n2)n1 [Example 76, (S)-2-(4-(6-((4-chloro-1-ethyl-1H-pyrazol-3-yl)methoxy)pyridin-2-yl)-2,5-difluorobenzyl)-1-(oxetan-2-ylmethyl)-1H-benzo[d]imidazole-6-carboxylic acid] | 4.23
15 | N#Cc1cc(COc2cccc(-c3cc(F)c(Cc4nc5ccc(C(=O)O)cc5n4C[C@@H]4CCO4)cc3F)n2)cs1 [Example 128, (S)-2-(4-(6-((5-cyanothiophen-3-yl)methoxy)pyridin-2-yl)-2,5-difluorobenzyl)-1-(oxetan-2-ylmethyl)-1H-benzo[d]imidazole-6-carboxylic acid] | 1.95
16 | Cc1cn(C)nc1COc1cccc(-c2cc(F)c(Cc3nc4ccc(C(=O)O)cc4n3C[C@@H]3CCO3)cc2F)n1 [Example 77, (S)-2-(4-(6-((1,4-dimethyl-1H-pyrazol-3-yl)methoxy)pyridin-2-yl)-2,5-difluorobenzyl)-1-(oxetan-2-ylmethyl)-1H-benzo[d]imidazole-6-carboxylic acid] | 6.32
17 | O=C(O)c1ccc2nc(Cc3cc(F)c(-c4cccc(OCc5ncc(-c6ccc(Cl)cc6)s5)n4)cc3F)n(C[C@@H]3CCO3)c2c1 [Example 384, (S)-2-(4-(6-((5-(4-chlorophenyl)thiazol-2-yl)methoxy)pyridin-2-yl)-2,5-difluorobenzyl)-1-(oxetan-2-ylmethyl)-1H-benzo[d]imidazole-6-carboxylic acid] | 0.563
18 | Cn1nncc1C#Cc1cnc(COc2cccc(-c3cc(F)c(Cc4nc5ccc(C(=O)O)cc5n4C[C@@H]4CCO4)cc3F)n2)c(F)c1 [Example 288, (S)-2-(2,5-difluoro-4-(6-((3-fluoro-5-((1-methyl-1H-1,2,3-triazol-5-yl)ethynyl)pyridin-2-yl)methoxy)pyridin-2-yl)benzyl)-1-(oxetan-2-ylmethyl)-1H-benzo[d]imidazole-6-carboxylic acid] | 0.067
19 | Cn1cc(-c2cnc(COc3nc(-c4cc(F)c(Cc5nc6ccc(C(=O)O)cc6n5C[C@@H]5CCO5)cc4F)ccc3F)s2)cn1 [Example 99, (S)-2-(2,5-difluoro-4-(5-fluoro-6-((5-(1-methyl-1H-pyrazol-4-yl)thiazol-2-yl)methoxy)pyridin-2-yl)benzyl)-1-(oxetan-2-ylmethyl)-1H-benzo[d]imidazole-6-carboxylic acid] | 0.14
20 | COCc1noc(COc2cccc(-c3cc(F)c(Cc4nc5ccc(C(=O)O)cc5n4C[C@@H]4CCO4)cc3F)n2)n1 [Example 16, (S)-2-(2,5-difluoro-4-(6-((3-(methoxymethyl)-1,2,4-oxadiazol-5-yl)methoxy)pyridin-2-yl)benzyl)-1-(oxetan-2-ylmethyl)-1H-benzo[d]imidazole-6-carboxylic acid] | 8.86
21 | O=C(O)c1ccc2nc(Cc3cc(F)c(-c4cccc(OCc5ccn(-c6ccncc6)n5)n4)cc3F)n(C[C@@H]3CCO3)c2c1 [Example 125, (S)-2-(2,5-difluoro-4-(6-((1-(pyridin-4-yl)-1H-pyrazol-3-yl)methoxy)pyridin-2-yl)benzyl)-1-(oxetan-2-ylmethyl)-1H-benzo[d]imidazole-6-carboxylic acid] | 3.64
22 | CCOc1nnc(COc2nc(-c3cc(F)c(Cc4nc5ccc(C(=O)O)cc5n4CC4(CF)CC4)cc3F)ccc2F)s1 [Example 256, 2-(4-(6-((5-ethoxy-1,3,4-thiadiazol-2-yl)methoxy)-5-fluoropyridin-2-yl)-2,5-difluorobenzyl)-1-((1-(fluoromethyl)cyclopropyl)methyl)-1H-benzo[d]imidazole-6-carboxylic acid] | 0.443
23 | Cc1cc(COc2cccc(-c3cc(F)c(Cc4nc5ccc(C(=O)O)cc5n4C[C@@H]4CCO4)cc3F)n2)nn1C [Example 72, (S)-2-(4-(6-((1,5-dimethyl-1H-pyrazol-3-yl)methoxy)pyridin-2-yl)-2,5-difluorobenzyl)-1-(oxetan-2-ylmethyl)-1H-benzo[d]imidazole-6-carboxylic acid] | 0.82
24 | COc1nnc(COc2cccc(-c3cc(Cl)c(Cc4nc5ccc(C(=O)O)cc5n4[C@@H]4COCC4(C)C)cc3C)n2)s1 [Example 442, (S)-2-(2-chloro-4-(6-((5-methoxy-1,3,4-thiadiazol-2-yl)methoxy)pyridin-2-yl)-5-methylbenzyl)-1-(4,4-dimethyltetrahydrofuran-3-yl)-1H-benzo[d]imidazole-6-carboxylic acid] | 0.669
